Experimental data as given in PubChem BioAssay (NCI).
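Each compound was tested at five concentrations against cells in 96-well plates for 48 hours. GI50 marks 50% less growth. TGI: total growth inhibition.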

Experiments:
Assay in all cases: NCI-60 cell line screen, 48 h
[1] = test system: HOP-92 NSCLC
[2] = test system: SF-268 CNS
[3] = test system: KM12 colon
[4] = test system: HT29 colon
[5] = test system: TK-10 renal
[6] = test system: HCC-2998 colon
[7] = test system: SNB-19 CNS
[8] = test system: UACC-62 melanoma
[9] = test system: BT-549 breast
[10] = test system: CAKI-1 renal
[11] = test system: SN12C renal
[12] = test system: K-562 leukemia
[13] = test system: U251 CNS
[14] = test system: HL-60(TB) leukemia
[15] = test system: RPMI-8226 leukemia
[16] = test system: SNB-75 CNS
[17] = test system: M14 melanoma
[18] = test system: SK-MEL-2 melanoma
[19] = test system: MALME-3M melanoma
[20] = test system: NCI-H23 lung
[21] = test system: SF-295 CNS
[22] = test system: COLO 205 colon
[23] = test system: HOP-62 NSCLC
[24] = test system: SK-OV-3 ovarian
[25] = test system: SK-MEL-5 melanoma
[26] = test system: EKVX NSCLC
[27] = test system: ACHN renal
[28] = test system: A549 NSCLC
[29] = test system: MOLT-4 leukemia
[30] = test system: MCF7 breast
[31] = test system: HS 578T breast
[32] = test system: A498 renal
[33] = test system: OVCAR-4 ovarian
[34] = test system: MDA-MB-231 breast
[35] = test system: RXF 393 renal
[36] = test system: NCI-H522 lung
[37] = test system: SR leukemia
[38] = test system: OVCAR-8 ovarian
[39] = test system: SK-MEL-28 melanoma
[40] = test system: SF-539 CNS
[41] = test system: SW-620 colon
[42] = test system: OVCAR-3 ovarian
[43] = test system: T-47D breast
[44] = test system: PC-3 prostate
[45] = test system: NCI/ADR-RES ovarian
[46] = test system: 786-0 renal
[47] = test system: MDA-MB-435
[48] = test system: UACC-257 melanoma
[49] = test system: DU-145 prostate
[50] = test system: NCI-H460 lung
[51] = test system: LOX IMVI melanoma
[52] = test system: HCT-116 colon
[53] = test system: NCI-H226 lung
[54] = test system: HCT-15 colon
[55] = test system: UO-31 renal
[56] = test system: OVCAR-5 ovarian
[57] = test system: IGROV1 ovarian
[58] = test system: CCRF-CEM leukemia

O=C(Nc1ccc([As]=[As]c2ccc(NC(=O)c3ccccc3)cc2)cc1)c1ccccc1 (stereo unspecified)
GI50 [1]: 179 nM
TGI [1]: 642 nM
GI50 [2]: 424 nM
TGI [2]: 1590 nM
GI50 [3]: 1690 nM
TGI [3]: 3120 nM
GI50 [4]: 1420 nM
TGI [4]: 3440 nM
GI50 [5]: 329 nM
TGI [5]: 1130 nM
GI50 [6]: 1240 nM
TGI [6]: 2500 nM
GI50 [7]: 1470 nM
TGI [7]: 2840 nM
GI50 [8]: 313 nM
TGI [8]: 1280 nM
GI50 [9]: 343 nM
TGI [9]: 1190 nM
GI50 [10]: 582 nM
TGI [10]: 1890 nM
GI50 [11]: 679 nM
TGI [11]: 1980 nM
GI50 [12]: 215 nM
TGI [12]: 560 nM
GI50 [13]: 255 nM
TGI [13]: 716 nM
GI50 [14]: 328 nM
TGI [14]: 2090 nM
GI50 [15]: 247 nM
TGI [15]: 728 nM
GI50 [16]: 242 nM
TGI [16]: 1510 nM
GI50 [17]: 1130 nM
TGI [17]: 2490 nM
GI50 [18]: 334 nM
TGI [18]: 1010 nM
GI50 [19]: 184 nM
TGI [19]: 571 nM
GI50 [20]: 391 nM
TGI [20]: 1480 nM
GI50 [21]: 1510 nM
TGI [21]: 3080 nM
GI50 [22]: 239 nM
TGI [22]: 769 nM
GI50 [23]: 1240 nM
TGI [23]: 2640 nM
GI50 [24]: 1900 nM
TGI [24]: 3310 nM
GI50 [25]: 846 nM
TGI [25]: 2100 nM
GI50 [26]: 1180 nM
TGI [26]: 2640 nM
GI50 [27]: 1190 nM
TGI [27]: 2450 nM
GI50 [28]: 1840 nM
TGI [28]: 3590 nM
GI50 [29]: 339 nM
TGI [29]: 1840 nM
GI50 [30]: 208 nM
TGI [30]: 547 nM
GI50 [31]: 478 nM
TGI [31]: 6320 nM
GI50 [32]: 1150 nM
TGI [32]: 2360 nM
GI50 [33]: 466 nM
TGI [33]: 1810 nM
GI50 [34]: 323 nM
TGI [34]: 1330 nM
GI50 [35]: 192 nM
TGI [35]: 499 nM
GI50 [36]: 74.3 nM
TGI [36]: 217 nM
GI50 [37]: 258 nM
TGI [37]: 751 nM
GI50 [38]: 333 nM
TGI [38]: 1220 nM
GI50 [39]: 214 nM
TGI [39]: 531 nM
GI50 [40]: 381 nM
TGI [40]: 1530 nM
GI50 [41]: 227 nM
TGI [41]: 740 nM
GI50 [42]: 285 nM
TGI [42]: 812 nM
GI50 [43]: 173 nM
TGI [43]: 493 nM
GI50 [44]: 1180 nM
TGI [44]: 2460 nM
GI50 [45]: 1320 nM
TGI [45]: 2650 nM
GI50 [46]: 454 nM
TGI [46]: 1670 nM
GI50 [47]: 734 nM
TGI [47]: 2110 nM
GI50 [48]: 244 nM
TGI [48]: 1010 nM
GI50 [49]: 1440 nM
TGI [49]: 2750 nM
GI50 [50]: 2030 nM
TGI [50]: 4510 nM
GI50 [51]: 262 nM
TGI [51]: 786 nM
GI50 [52]: 234 nM
TGI [52]: 624 nM
GI50 [53]: 662 nM
TGI [53]: 1640 nM
GI50 [54]: 302 nM
TGI [54]: 1360 nM
GI50 [55]: 975 nM
TGI [55]: 2250 nM
GI50 [56]: 1170 nM
TGI [56]: 2530 nM
GI50 [57]: 756 nM
TGI [57]: 2250 nM
GI50 [58]: 136 nM
TGI [58]: 428 nM
